{"source": "ChEMBL document CHEMBL1145489", "about": "“Isoniazid induces its own resistance in nonreplicating Mycobacterium tuberculosis” (Antimicrob Agents Chemother, 2007)", "key": {"[1]": {"tested_on": "Mycobacterium tuberculosis", "assay": "Antimicrobial activity against Mycobacterium tuberculosis H37Rv at 0.1 ug/ml after 2 weeks by […] method", "assay_type": "functional"}, "[2]": {"tested_on": "Mycobacterium tuberculosis", "assay": "Antimicrobial activity against Mycobacterium tuberculosis TB7 isolate at 0.1 ug/ml after 1 week", "assay_type": "functional"}, "[3]": {"tested_on": "Mycobacterium tuberculosis", "assay": "Antimicrobial activity against Mycobacterium tuberculosis TB20 isolate at 0.1 ug/ml after 3 weeks", "assay_type": "functional"}, "[4]": {"tested_on": "Mycobacterium tuberculosis", "assay": "Antimicrobial activity against Mycobacterium tuberculosis TB20 isolate at 0.4 ug/ml after 1 week", "assay_type": "functional"}, "[5]": {"tested_on": "Mycobacterium tuberculosis", "assay": "Antimicrobial activity against Mycobacterium tuberculosis TB20 isolate at 0.1 ug/ml after 1 week", "assay_type": "functional"}, "[6]": {"tested_on": "Mycobacterium tuberculosis", "assay": "Antimicrobial activity against Mycobacterium tuberculosis TB19 isolate at 0.4 ug/ml after 3 weeks", "assay_type": "functional"}, "[7]": {"tested_on": "Mycobacterium tuberculosis", "assay": "Antimicrobial activity against Mycobacterium tuberculosis TB19 isolate at 0.1 ug/ml after 2 weeks", "assay_type": "functional"}, "[8]": {"tested_on": "Mycobacterium tuberculosis", "assay": "Antimicrobial activity against Mycobacterium tuberculosis TB20 isolate at 0.1 ug/ml after 4 weeks", "assay_type": "functional"}, "[9]": {"tested_on": "Mycobacterium tuberculosis", "assay": "Antimicrobial activity against Mycobacterium tuberculosis TB7 isolate at 0.1 ug/ml after 2 weeks", "assay_type": "functional"}, "[10]": {"tested_on": "Mycobacterium tuberculosis", "assay": "Antimicrobial activity against Mycobacterium tuberculosis H37Rv at 0.1 ug/ml after 1 week by […] method", "assay_type": "functional"}, "[11]": {"tested_on": "Mycobacterium tuberculosis", "assay": "Antimicrobial activity against Mycobacterium tuberculosis H37Rv at 0.1 ug/ml after 4 weeks by […] method", "assay_type": "functional"}, "[12]": {"tested_on": "Mycobacterium tuberculosis", "assay": "Antimicrobial activity against Mycobacterium tuberculosis TB19 isolate at 0.1 ug/ml after 3 weeks", "assay_type": "functional"}, "[13]": {"tested_on": "Mycobacterium tuberculosis", "assay": "Antimicrobial activity against Mycobacterium tuberculosis H37Rv at 0.1 ug/ml after 3 weeks by […] method", "assay_type": "functional"}, "[14]": {"tested_on": "Mycobacterium tuberculosis", "assay": "Antimicrobial activity against Mycobacterium tuberculosis TB19 isolate at 0.1 ug/ml after 1 week", "assay_type": "functional"}, "[15]": {"tested_on": "Mycobacterium tuberculosis", "assay": "Antimicrobial activity against Mycobacterium tuberculosis TB7 isolate at 0.4 ug/ml after 1 week", "assay_type": "functional"}, "[16]": {"tested_on": "Mycobacterium tuberculosis", "assay": "Antimicrobial activity against Mycobacterium tuberculosis TB20 isolate at 0.4 ug/ml after 4 weeks", "assay_type": "functional"}, "[17]": {"tested_on": "Mycobacterium tuberculosis", "assay": "Antimicrobial activity against Mycobacterium tuberculosis TB19 isolate at 0.4 ug/ml after 4 weeks", "assay_type": "functional"}, "[18]": {"tested_on": "Mycobacterium tuberculosis", "assay": "Antimicrobial activity against Mycobacterium tuberculosis H37Rv at 0.4 ug/ml after 4 weeks by […] method", "assay_type": "functional"}, "[19]": {"assay": "Stability in BACTEC medium at 37 degC upto 4 weeks", "assay_type": "physicochemical", "conditions": "672 h"}, "[20]": {"tested_on": "Mycobacterium tuberculosis", "assay": "Antimicrobial activity against Mycobacterium tuberculosis TB7 isolate at 0.4 ug/ml after 3 weeks", "assay_type": "functional"}, "[21]": {"tested_on": "Mycobacterium tuberculosis", "assay": "Antimicrobial activity against Mycobacterium tuberculosis TB7 isolate at 0.1 ug/ml after 4 weeks", "assay_type": "functional"}, "[22]": {"tested_on": "Mycobacterium tuberculosis", "assay": "Antimicrobial activity against Mycobacterium tuberculosis TB7 isolate at 0.4 ug/ml after 2 weeks", "assay_type": "functional"}, "[23]": {"tested_on": "Mycobacterium tuberculosis", "assay": "Antimicrobial activity against Mycobacterium tuberculosis TB19 isolate at 0.4 ug/ml after 2 weeks", "assay_type": "functional"}, "[24]": {"tested_on": "Mycobacterium tuberculosis", "assay": "Antimicrobial activity against Mycobacterium tuberculosis TB20 isolate at 0.1 ug/ml after 2 weeks", "assay_type": "functional"}, "[25]": {"tested_on": "Mycobacterium tuberculosis", "assay": "Antimicrobial activity against Mycobacterium tuberculosis H37Rv at 0.4 ug/ml after 3 weeks by […] method", "assay_type": "functional"}, "[26]": {"tested_on": "Mycobacterium tuberculosis", "assay": "Antimicrobial activity against Mycobacterium tuberculosis TB19 isolate at 0.1 ug/ml after 4 weeks", "assay_type": "functional"}, "[27]": {"tested_on": "Mycobacterium tuberculosis", "assay": "Antimicrobial activity against Mycobacterium tuberculosis TB20 isolate at 0.4 ug/ml after 3 weeks", "assay_type": "functional"}, "[28]": {"tested_on": "Mycobacterium tuberculosis", "assay": "Antimicrobial activity against Mycobacterium tuberculosis TB7 isolate at 0.1 ug/ml after 3 weeks", "assay_type": "functional"}, "[29]": {"tested_on": "Mycobacterium tuberculosis", "assay": "Antimicrobial activity against Mycobacterium tuberculosis H37Rv at 0.4 ug/ml after 1 week by […] method", "assay_type": "functional"}, "[30]": {"tested_on": "Mycobacterium tuberculosis", "assay": "Antimicrobial activity against Mycobacterium tuberculosis H37Rv at 0.4 ug/ml after 2 weeks by […] method", "assay_type": "functional"}, "[31]": {"tested_on": "Mycobacterium tuberculosis", "assay": "Antimicrobial activity against Mycobacterium tuberculosis TB7 isolate at 0.4 ug/ml after 4 weeks", "assay_type": "functional"}, "[32]": {"tested_on": "Mycobacterium tuberculosis", "assay": "Antimicrobial activity against Mycobacterium tuberculosis TB20 isolate at 0.4 ug/ml after 2 weeks", "assay_type": "functional"}, "[33]": {"tested_on": "Mycobacterium tuberculosis", "assay": "Antimicrobial activity against Mycobacterium tuberculosis TB19 isolate at 0.4 ug/ml after 1 week", "assay_type": "functional"}, "[34]": {"tested_on": "Mycobacterium tuberculosis", "assay": "Antimicrobial activity against Mycobacterium tuberculosis H37Rv at 2 ug/ml after 3 weeks at by […] method", "assay_type": "functional"}, "[35]": {"tested_on": "Mycobacterium tuberculosis", "assay": "Antimicrobial activity against Mycobacterium tuberculosis H37Rv at 2 ug/ml after 4 weeks by […] method", "assay_type": "functional"}, "[36]": {"tested_on": "Mycobacterium tuberculosis", "assay": "Antimicrobial activity against Mycobacterium tuberculosis H37Rv at 2 ug/ml after 2 weeks by […] method", "assay_type": "functional"}, "[37]": {"tested_on": "Mycobacterium tuberculosis", "assay": "Antimicrobial activity against Mycobacterium tuberculosis H37Rv at 2 ug/ml after 1 week by […] method", "assay_type": "functional"}}, "data": [{"smiles": "NNC(=O)c1ccncc1", "note": "[ISONIAZID]", "values": [{"measurement": "CFU", "setting": "[1]", "result": "3.1 10^3/ml"}, {"measurement": "CFU", "setting": "[2]", "result": "1.7 10^5/ml"}, {"measurement": "CFU", "setting": "[3]", "result": "1.6 10^4/ml"}, {"measurement": "CFU", "setting": "[4]", "result": 40, "unit": "mL⁻¹"}, {"measurement": "CFU", "setting": "[5]", "result": "2.4 10^2/ml"}, {"measurement": "CFU", "setting": "[6]", "result": "3.4 10^4/ml"}, {"measurement": "CFU", "setting": "[7]", "result": "1.1 10^3/ml"}, {"measurement": "CFU", "setting": "[8]", "result": "2.5 10^4/ml"}, {"measurement": "CFU", "setting": "[9]", "result": "7.6 10^3/ml"}, {"measurement": "CFU", "setting": "[10]", "result": "1.2 10^3/ml"}, {"measurement": "CFU", "setting": "[11]", "result": "1.22 10^5/ml"}, {"measurement": "CFU", "setting": "[12]", "result": "4.8 10^3/ml"}, {"measurement": "CFU", "setting": "[13]", "result": "2.4 10^4/ml"}, {"measurement": "CFU", "setting": "[14]", "result": 25, "unit": "mL⁻¹"}, {"measurement": "CFU", "setting": "[15]", "result": 0, "unit": "mL⁻¹"}, {"measurement": "CFU", "setting": "[16]", "result": "8 10^4/ml"}, {"measurement": "CFU", "setting": "[17]", "result": "4.8 10^4/ml"}, {"measurement": "CFU", "setting": "[18]", "result": "1.32 10^4/ml"}, {"measurement": "Stability", "setting": "[19]", "result": "Stable"}, {"measurement": "CFU", "setting": "[20]", "result": "1.2 10^4/ml"}, {"measurement": "CFU", "setting": "[21]", "result": "7.9 10^4/ml"}, {"measurement": "CFU", "setting": "[22]", "result": "5.6 10^2/ml"}, {"measurement": "CFU", "setting": "[23]", "result": "2 10^2/ml"}, {"measurement": "CFU", "setting": "[24]", "result": "1.4 10^4/ml"}, {"measurement": "CFU", "setting": "[25]", "result": "1.45 10^4/ml"}, {"measurement": "CFU", "setting": "[26]", "result": "7 10^3/ml"}, {"measurement": "CFU", "setting": "[27]", "result": "7.5 10^4/ml"}, {"measurement": "CFU", "setting": "[28]", "result": "2.5 10^4/ml"}, {"measurement": "CFU", "setting": "[29]", "result": 55, "unit": "mL⁻¹"}, {"measurement": "CFU", "setting": "[30]", "result": "3.6 10^3/ml"}, {"measurement": "CFU", "setting": "[31]", "result": "1.1 10^5/ml"}, {"measurement": "CFU", "setting": "[32]", "result": "1.3 10^4/ml"}, {"measurement": "CFU", "setting": "[33]", "result": 0, "unit": "mL⁻¹"}]}, {"smiles": "CO[C@H]1/C=C/O[C@@]2(C)Oc3c(C)c(O)c4c(O)c(c(/C=N/N5CCN(C)CC5)c(O)c4c3C2=O)NC(=O)/C(C)=C\\C=C\\[C@H](C)[C@H](O)[C@@H](C)[C@@H](O)[C@@H](C)[C@H](OC(C)=O)[C@@H]1C", "note": "[RIFAMPIN]", "values": [{"measurement": "CFU", "setting": "[34]", "result": 0, "unit": "mL⁻¹"}, {"measurement": "CFU", "setting": "[35]", "result": 0, "unit": "mL⁻¹"}, {"measurement": "CFU", "setting": "[36]", "result": 0, "unit": "mL⁻¹"}, {"measurement": "CFU", "setting": "[37]", "result": 0, "unit": "mL⁻¹"}]}]}
